The numbers were not newly measured in patent publication US11311573B2, “Pharmaceutical preparations and methods to manage weight and to modulate the gut microbiota” (XENO BIOSCIENCES INC., priority 2016, dated 2022), which cites them from elsewhere.

For the data set the following is noted: rat, based on chronic oral hydrogen peroxide treatment.

Turning to `O=C([O-])[O-].O=C([O-])[O-].OO.OO.OO.[Na+].[Na+].[Na+].[Na+]` [sodium percarbonate, Sodium percarbonate], the “No-observable-adverse-effect-level (NOAEL)” value is 81 to 115 mg/kg/day.
